Experiments:
Format in all cases: cell-based, HAdV-5
[1] = system: HAdV5-GFP; test: Plaque assay (inhibition of HAdV plaque formation); details: for Selectivity index (SI): ratio of CC50 to IC50 in plaque assay; for inhibition at 10 µM: read-out: Plaque Assay (%) Inhibition (10 μM); for IC50: read-out: Plaque Assay IC50 (μM), HAdV5-GFP, low MOI, 293β5 cell line
Method in brief: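 Cells at 80-90% confluency infected with HAdV5-GFP at 0.06 vp/cell, rocked 2 h at 37° C, then washed with PBS. Compounds tested at 10 μM and in dose-response from 10 to 0.3 μM, included in the post-infection mixture.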

[2] = system: HAdV5-GFP; test: Entry assay (HAdV5-mediated GFP expression); details: for inhibition at 50 µM: read-out: (%) Inhibition Entry Assay (50 μM)
Method in brief: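 Human A549 cells (3×10^5/well) infected with HAdV5-GFP at 2000 vp/cell with compounds at 50 μM or in dose-response, in triplicate. Incubation 48 h at 37° C., 5% CO2. Standard infection curve from 2-fold virus dilutions without compound run in parallel.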

[3] = system: wild-type HAdV5; test: Nuclear-associated HAdV genomes (real-time PCR)
[4] = system: wild-type HAdV5; test: HAdV DNA quantification by real-time PCR (DNA replication); details: 24 h
Protocol: DNA Quantification by Real-Time PCR. […] Infected cells were incubated 24 h at 37° C. in 500 μL of complete DMEM containing 25 μM of either compounds or the same volume of DMSO (positive control). All samples were done in duplicate. After 24 h of incubation at 37° C., DNA was purified from the cell lysate with the QIAamp DNA Mini Kit (QIAGEN, Valencia, Calif.) following the manufacturer's instructions. TaqMan primers and probes for a common region of the HAdV5 were designed with the GenScript Real-Time PCR (TaqMan) Primer Design software (GenScript). […] Real-time PCR mixtures consisted of 9.5 μL of the purified DNA, AQ1 and AQ2 at a concentration of 200 nM each and Probe at a concentration of 50 nM in a total volume of 25 μL. The PCR cycling protocol was 95° C. for 3 min followed by 40 cycles of 95° C. for 10 s and 60° C. for 30 s. Human glyceraldehyde-3-phosphate dehydrogenase (GAPDH) gene was used as internal control. Oligonucleotides sequences for GAPDH and conditions were those previously reported by Henke-Gendo et al. (2012).
For quantification, gene fragments from hexon, and GAPDH were cloned into the pGEM-T Easy vector (Promega) and known concentrations of template were used to generate a standard curve in parallel for each experiment. All assays were performed in thermal cycler LightCycler® 96 System (Roche).
(§1) HAdV DNA Quantification by Real-Time PCR. […] All samples were done in duplicate. After 24 h of incubation at 37° C., DNA was purified from the cell lysate with the E.Z.N.A.® Tissue DNA Kit (Omega Bio-tek, Norcross, Ga.) following the manufacturer's instructions. TaqMan primers and probes for a common region of the HAdV5 were designed with the GenScript Real-Time PCR (TaqMan) Primer Design software (GenScript). […] Real-time PCR mixtures consisted of 9.5 μL of the purified DNA, AQ1 and AQ2 at a concentration of 200 nM each and Probe at a concentration of 50 nM in a total volume of 25 μL. The PCR cycling protocol was 95° C. for 3 min followed by 40 cycles of 95° C. for 10 s and 60° C. for 30 s. Human glyceraldehyde-3-phosphate dehydrogenase (GAPDH) gene was used as internal control. Oligonucleotides sequences for GAPDH and conditions were those previously reported by Henke-Gendo et al. (2012).
as §1, with “DNA” for “HAdV DNA”

[5] = A549, read-out: IC50 Entry Assay (μM), HAdV5-GFP, high MOI, A549 cell line
[6] = FIG. 3, 45 min post infection, concentrations by CC50 (2-50 μM)
[7] = FIG. 4, concentrations by CC50 (2-50 μM)

Row | Compound | Selectivity index (SI) [1] | inhibition at 10 µM [1] [%] | IC50 [1] [µM] | inhibition at 50 µM ([2]; A549, 48 h) [%] | IC50 [2, 5] [µM] | amount of nuclear-associated HAdV genomes versus DMSO [3, 6] | inhibition of HAdV-5 DNA replication (qPCR) [4, 7] | EC50 ([1]; read-out: EC50 (plaque assay)) [µM] | EC50 ([2]; A549, 48 h, read-out: EC50 (entry assay, as worded in text)) [µM] | inhibition of accessibility of HAdV DNA to the nucleus ([3]; FIG. 5B, 45 min post-infection, 10-fold plaque IC50) | inhibition at 7.8 µM ([4]; read-out: inhibition of HAdV-5 DNA replication (qPCR)) [%] | IC50 ([2]; {}) [µM] | amount of nuclear-associated HAdV genomes versus DMSO ([3]; FIG. 5A, 45 min post-infection, 10-fold plaque IC50) | inhibition of HAdV-5 DNA replication (qPCR) ([4]; FIG. 6A, 10-fold plaque IC50)
1 | O=C(N[C@H](Cc1ccccc1)C(=O)Nc1ccc([N+](=O)[O-])cc1Cl)c1cc(Cl)ccc1O [Compound 60, (R)-5-Chloro-N-(1-((2-chloro-4-nitrophenyl)amino)-1-oxo-3-phenylpropan-2-yl)-2-hydroxybenzamide] | 259.7 | 100 | 0.3 | 68.6 | 9.7 | partially inhibited | significant (p≤0.0001) inhibitory activity | – | – | – | – | – | – | –
2 | CC(C)[C@H](NC(=O)c1cc(Cl)ccc1O)C(=O)Nc1ccc([N+](=O)[O-])cc1Cl [Compound 58, (S)-5-Chloro-N-(1-((2-chloro-4-nitrophenyl)amino)-3-methyl-1-oxobutan-2-yl)-2-hydroxybenzamide] | 444.4 | 100 | – | 81.8 | 11.2 | no significant differences | low inhibition | – | – | – | – | – | – | –
3 | O=C(Nc1ccc([N+](=O)[O-])cc1F)c1cc(Cl)ccc1O [Compound 11, 5-Chloro-N-(2-fluoro-4-nitrophenyl)-2-hydroxybenzamide] | 218.2 | 98.7 ± 1.9 | 0.05 | 92.4 ± 0.2 | 1.57 ± 0.97 | partially inhibited | low inhibition | – | – | – | – | – | – | –
4 | O=C(NCC1CCCCC1)c1cc(Cl)ccc1O [Compound 161, 5-Chloro-N-(cyclohexylmethyl)-2-hydroxybenzamide] | > 100 | 100 | – | 98.6 ± 14.8 | 12.3 ± 4.8 | – | – | 0.78 | 12.3 | more than 99% | 50 | – | – | –
5 | O=C(Nc1cc(F)cc(C(F)(F)F)c1)c1cc(Cl)ccc1O [Compound 17, 5-Chloro-N-(3-fluoro-5-(trifluoromethyl)phenyl)-2-hydroxybenzamide] | 666.7 | 100 | – | 100 | 2.23 ± 0.58 | no significant differences | low inhibition | – | – | – | – | – | – | –
6 | CC1(Nc2ccc(NC(=O)c3cc(Cl)ccc3O)c(Cl)c2)CCCC1 [Compound 87, 5-Chloro-N-(2-chloro-4-((1-methylcyclopentyl)amino)phenyl)-2-hydroxybenzamide] | 580.7 | 100 | 0.27 | 85.4 | 15.2 to 30.8 | – | – | – | – | – | – | 15.2 ± 5.1 | partially inhibited | moderate inhibition
